Assay results published in patent US20220152101A1, “CELLULAR IMMUNOTHERAPY COMBINATION” (CARSGEN THERAPEUTICS CO., LTD., priority 2019, published 2022).

Tested on: Panc02/Luc-GFP-Claudin 18.2 cells
Experiment: In vivo inhibitory effect of Gemcitabine combined with CAR T cells on in situ mouse pancreatic cancer
Set-up: species or system C57BL/6 mice
Protocol: The pancreases of 6-week-old C57BL/6 mice are inoculated with 2×10^5 Panc02/Luc-GFP-Claudin 18.2 cells in situ, and is recorded as Day 0 in the tumor cell inoculation diary.
On the 6th day after tumor inoculation (i.e., Day 6), mouse T cells are taken and constructed according to Example 1 to construct the 8E5-2I-mBBZ CAR T cell line. At the same time, the mice are subjected to in vivo imaging, and the mice are randomly grouped according to the tumor burden of the mice. The main groups are:
Group 1: UTD group, that is, the group administrated only untransfected mouse T cell treatment;
Group 2: CART group, that is, the group administrated only 8E5-2I-mBBZ CAR T cell therapy;
Group 3: Gemcitabine group, that is, the group administrated only Gemcitabine; and
Group 4: Gemcitabine+CART group, that is, the group administrated 8E5-2I-mBBZ CAR T cells combined with Gemcitabine treatment.
On the 6th, 7th, and 8th day (i.e., Day 6, 7, and 8), mice in the Gemcitabine group and Gemcitabine+CART group are administrated 30 mg/kg Gemcitabine for treatment, intraperitoneal administration, once a day. […]

SMILES: Cl.Nc1ccn([C@@H]2O[C@H](CO)[C@@H](O)C2(F)F)c(=O)n1 [Gemcitabine, 2′-deoxy-2′, 2′-difluorocytidine hydrochloride]
- tumor burdens compared to the UTD group (Day 13, in vivo imaging, FIG. 2, Gemcitabine 30 mg/kg i.p. Day 6-8, 3×10^6 CAR-T cells tail vein Day 9): significantly decreased
- tumor growth (in vivo imaging data) (FIG. 3, Gemcitabine+CART compared with the UTD group, P<0.05): continue to grow
